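96-well plates; 48 h exposure; 5 concentrations. Endpoints by linear interpolation between flanking doses. Not reached: highest tested concentration assigned. GI50 is the concentration that inhibits growth by half. TGI denotes the concentration required for complete inhibition of growth.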
Assays:
Test in all cases: NCI anticancer screen, dose series, 48 h
[1] = test system: BT-549 breast
[2] = test system: DU-145 prostate
[3] = test system: HS 578T breast
[4] = test system: MDA-MB-231 breast
[5] = test system: DMS 114 small cell lung
[6] = test system: DMS 273 small cell lung
[7] = test system: XF 498 CNS
[8] = test system: MDA-N
[9] = test system: RXF-631 renal

Molecule `Nc1ncnc2occ(-c3ccc(NC(=O)Nc4cc(C(F)(F)F)cc(C(F)(F)F)c4)cc3)c12` has a GI50 [1] of 2.66 µM, a TGI [1] of 5.77 µM and a GI50 [2] of 3.59 µM. It also gave a TGI [2] of 7.34 µM, a GI50 [3] of 2.12 µM and a TGI [3] of 8.03 µM. The GI50 [4] was 4.3 µM and the TGI [4] was 9.09 µM.
`Cc1ccc(C2=Nc3c(N)ncnc3NC(c3cccc(Nc4ccnc5cc(C(F)(F)F)ccc45)c3)C2)cc1` (stereo unspecified) gave a GI50 [1] of 2.83 µM, a TGI [1] of 13.4 µM and a GI50 [2] of 6.83 µM. For the same molecule, the TGI [2] was > 100 µM, the GI50 [3] was 4.01 µM and the TGI [3] was > 100 µM. The GI50 [4] was 2.59 µM and the TGI [4] was 8.44 µM.
For `CCOC(=O)c1[nH]c2c(c1C)-c1[nH]c(=O)c(S(=O)(=O)c3ccccc3)cc1SC2`, the GI50 [1] was 36.5 µM, the TGI [1] was > 100 µM and the GI50 [2] was 30.6 µM. For the same molecule, the TGI [2] was > 100 µM, the GI50 [3] was 24.7 µM and the TGI [3] was 94 µM. For the same molecule, the GI50 [4] was 34.9 µM and the TGI [4] was > 100 µM.
For `CC1=NN(C(=O)CC(=O)Nc2cccc(Cl)c2)C(=O)C1N=Nc1ccc(S(N)(=O)=O)cc1` (stereo unspecified), the TGI [5] was > 100 µM, the TGI [6] was > 100 µM and the TGI [7] was > 100 µM.
For `Cc1cc(CS(=O)(=O)/C=C/c2ccccc2[N+](=O)[O-])c(CS(=O)(=O)/C=C/c2ccccc2[N+](=O)[O-])cc1C`, the TGI [1] was 44.4 µM, the TGI [5] was > 100 µM and the TGI [6] was > 100 µM. For the same molecule, the TGI [2] was > 100 µM, the TGI [3] was > 62.5 µM and the TGI [4] was > 51.2 µM. The TGI [8] was 99.7 µM and the TGI [7] was 38.3 µM.
In the case of `COc1ccc(C2=CC(c3cc(OC)c(OC)c(OC)c3)n3ncnc3N2)cc1` (stereo unspecified), the GI50 [1] is reported as 0.0684 µM, the TGI [1] is reported as 2.04 µM and the GI50 [2] is reported as 0.0648 µM. The TGI [2] was 97.8 µM, the GI50 [3] was 0.0734 µM and the TGI [3] was > 100 µM. For the same molecule, the GI50 [4] was 0.193 µM and the TGI [4] was 83.5 µM.
With `CC(CS(=O)(=O)Cc1ccccc1)C(N)=O` (stereo unspecified) the TGI [1] was > 100 µM, the TGI [2] was > 100 µM and the TGI [3] was > 100 µM. For the same molecule, the TGI [4] was > 100 µM and the TGI [8] was > 100 µM.
`N#CC1c2ccccc2-c2ccccc2N1C(=O)c1ccccc1` (stereo unspecified) was tested, and the GI50 [1] was 0.507 µM, the TGI [1] was 2.54 µM and the GI50 [2] was 1.72 µM. For the same molecule, the TGI [2] was 4.21 µM, the GI50 [3] was 1.99 µM and the TGI [3] was 6.72 µM. The GI50 [4] was 2.61 µM and the TGI [4] was 9.06 µM.
`Cc1ccc(NCSc2ccc(Cl)cc2)cc1` was tested, and the GI50 [1] was 6.43 µM, the TGI [1] was > 100 µM and the GI50 [2] was > 100 µM. The TGI [2] was > 100 µM, the GI50 [3] was 24.7 µM and the TGI [3] was > 100 µM. The GI50 [4] was 15.1 µM and the TGI [4] was > 100 µM.
With `COc1ccccc1Cn1cc2c(c1)-c1oncc1CC2` the GI50 [1] was 7.5 µM, the TGI [1] was > 100 µM and the GI50 [2] was 0.357 µM. For the same molecule, the TGI [2] was 3.4 µM, the GI50 [3] was 0.384 µM and the TGI [3] was 3.03 µM. For the same molecule, the GI50 [4] was 1.34 µM and the TGI [4] was > 100 µM.
For `CCOC(=O)CCC1(C(=O)OC)CCCC1=O` (stereo unspecified), the TGI [5] was > 100 µM, the TGI [6] was > 100 µM and the TGI [7] was > 100 µM.
For `Cc1nn(-c2ccccc2)c2c1C1C(=C(c3ccc(Cl)cc3)N2)C(=O)Nc2ccccc21` (stereo unspecified), the GI50 [1] was 2.81 µM, the TGI [1] was 9.32 µM and the GI50 [2] was 7.01 µM. For the same molecule, the TGI [2] was > 100 µM, the GI50 [3] was 8.59 µM and the TGI [3] was > 100 µM. For the same molecule, the GI50 [4] was 2.41 µM and the TGI [4] was 8.74 µM.
`O=c1oc(-c2ccc(O)c(O)c2)cc2cc(O)cc(O)c12` gave a GI50 [1] of 26.2 µM, a TGI [1] of 84.8 µM and a GI50 [2] of 32.4 µM. The TGI [2] was > 100 µM, the GI50 [3] was 39.5 µM and the TGI [3] was 94.4 µM. For the same molecule, the GI50 [4] was 44.7 µM and the TGI [4] was > 100 µM.
`O=C1c2cccnc2C(=O)c2c1c(C(=O)OCCCN1CCOCC1)c1ccccn21` was tested, and the GI50 [1] was 0.0375 µM, the TGI [1] was 1.82 µM and the GI50 [2] was < 0.01 µM. The TGI [2] was 1.29 µM, the GI50 [4] was 1.32 µM and the TGI [4] was 15.8 µM.
`COC(=O)/C(=N\NC(=O)c1ccccc1O)C(C#N)c1ccc(Cl)cc1` (stereo unspecified) was tested, and the TGI [5] was > 100 µM and the TGI [9] was > 100 µM.
With `CC(C)(C)n1cc(-c2ccnc(NCCNS(=O)(=O)c3ccc(Br)cc3)c2)c(-c2cccc(O)c2)n1` the GI50 [1] was 1.64 µM, the TGI [1] was 3.2 µM and the GI50 [2] was 2.14 µM. The TGI [2] was 4.86 µM, the GI50 [4] was 1.91 µM and the TGI [4] was 4.07 µM.
With `O=C(Cc1nc2ccc(C(=O)c3ccccc3)cc2[nH]c1=O)C(=O)Nc1ccccc1[N+](=O)[O-]` the TGI [1] was > 100 µM, the TGI [3] was > 100 µM and the TGI [4] was > 100 µM. For the same molecule, the TGI [8] was > 100 µM.
Work on `O=C1C=C(Nc2cccc(Br)c2)c2ccccc2C1=O` yielded a GI50 [1] of 4.58 µM, a TGI [1] of 33.9 µM and a GI50 [2] of 0.569 µM. For the same molecule, the TGI [2] was 14 µM, the GI50 [3] was 0.259 µM and the TGI [3] was 14.4 µM. For the same molecule, the GI50 [4] was 1.51 µM and the TGI [4] was 36.5 µM.
`O=C(OCc1ccccc1CN1CCOCC1)c1ccc(Br)cc1` was tested, and the TGI [1] was > 100 µM, the TGI [2] was > 100 µM and the TGI [3] was > 100 µM. The TGI [4] was > 100 µM.
`CCCCCCCCCCCCCCCC[N+]1(CC)CCCC1` gave a GI50 [2] of 0.84 µM, a TGI [2] of 2.14 µM and a GI50 [3] of 0.679 µM. The TGI [3] was 3.26 µM, the GI50 [4] was 0.589 µM and the TGI [4] was 2.19 µM.
Work on `c1ccc2c(c1)nc(NCCN1CCNCC1)c1c3ccccc3[nH]c21` yielded a GI50 [1] of 1.53 µM, a TGI [1] of 4.04 µM and a GI50 [2] of 0.227 µM. The TGI [2] was 1.4 µM, the GI50 [3] was 1.19 µM and the TGI [3] was 4.67 µM. The GI50 [4] was 0.676 µM and the TGI [4] was 2.28 µM.
With `CC1Cc2c(N(C)C)ncnc2N(C)c2ccc(Cl)cc21` (stereo unspecified) the GI50 [1] was 6.63 µM, the TGI [1] was 32.1 µM and the GI50 [2] was 5.49 µM. The TGI [2] was > 100 µM, the GI50 [3] was 3.08 µM and the TGI [3] was > 100 µM. For the same molecule, the GI50 [4] was 5.84 µM and the TGI [4] was 55.4 µM.
For `O=C1[C@H]2C(c3ccccc3)=NN(C(=O)c3ccccc3)[C@H]2C(=O)N1c1ccccc1`, the TGI [5] was > 100 µM and the TGI [6] was > 100 µM.
`CN1CCCC1c1cccnc1.O=C(O)c1ccccc1O.O=C([O-])c1ccccc1[OH2+].O=C([O-])c1ccccc1[OH2+].O=C([O-])c1ccccc1[OH2+].[Mn+2]` (stereo unspecified) was tested, and the GI50 [1] was 39.7 µM, the TGI [1] was > 100 µM and the GI50 [2] was > 100 µM. For the same molecule, the TGI [2] was > 100 µM, the GI50 [3] was 2.43 µM and the TGI [3] was > 100 µM. The GI50 [4] was > 100 µM, the TGI [4] was > 100 µM and the GI50 [8] was > 100 µM. For the same molecule, the TGI [8] was > 100 µM.
For `O=C(CCCCCCCCC(=O)OCC1OC(n2cnc3c(=O)[nH]cnc32)C(O)C1O)OCC1OC(n2cnc3c(=O)[nH]cnc32)C(O)C1O` (stereo unspecified), the TGI [5] was > 100 µM, the TGI [6] was > 100 µM and the TGI [7] was > 100 µM.
With `CC[C@]12C=CCN3CC[C@]4(C(=C(C(=O)OC)C1)Nc1cc(O)ccc14)[C@@H]32` the GI50 [1] was 20.6 µM, the TGI [1] was 41.9 µM and the GI50 [2] was 21.7 µM. The TGI [2] was 45.3 µM, the GI50 [3] was 15.5 µM and the TGI [3] was 58.1 µM. For the same molecule, the GI50 [4] was 13.8 µM and the TGI [4] was 41.6 µM.

Reference: PubChem BioAssay (NCI)
